Measurements: the NIST ThermoML archive (doi:10.1021/je501051p)
Numbers after ± are expanded uncertainties.

Assay: mn = molality of the nth substance listed, in mol/kg
Conditions: 303 K, Ring tensiometer

## CCCCCCCCCCc1ccc(C(=O)[O-])cn1.[Na+] [sodium 6-decylnicotinate] + O
m1 = 1e-05
  surface tension liquid-gas: 65 ± 2.1 mN/m
m1 = 1.479e-05
  surface tension liquid-gas: 63.7 ± 2.1 mN/m
m1 = 2.512e-05
  surface tension liquid-gas: 62.02 ± 2.1 mN/m
m1 = 4.074e-05
  surface tension liquid-gas: 59.6 ± 2.1 mN/m
m1 = 5.495e-05
  surface tension liquid-gas: 58.45 ± 2.1 mN/m
m1 = 7.586e-05
  surface tension liquid-gas: 56.75 ± 2.1 mN/m
m1 = 0.0001
  surface tension liquid-gas: 55.75 ± 2.1 mN/m
m1 = 0.000123
  surface tension liquid-gas: 54.56 ± 2.1 mN/m
m1 = 0.0001514
  surface tension liquid-gas: 53.1 ± 2.1 mN/m
m1 = 0.000182
  surface tension liquid-gas: 51.77 ± 2.1 mN/m
m1 = 0.0002042
  surface tension liquid-gas: 50.5 ± 2.1 mN/m
m1 = 0.0002512
  surface tension liquid-gas: 49.5 ± 2.1 mN/m
m1 = 0.000302
  surface tension liquid-gas: 48.5 ± 2.1 mN/m
m1 = 0.0003548
  surface tension liquid-gas: 47 ± 2.1 mN/m
m1 = 0.0004074
  surface tension liquid-gas: 47 ± 2.1 mN/m
m1 = 0.0005012
  surface tension liquid-gas: 47 ± 2.1 mN/m
m1 = 0.0006166
  surface tension liquid-gas: 47 ± 2.1 mN/m
m1 = 0.0008128
  surface tension liquid-gas: 46.5 ± 2.1 mN/m
m1 = 0.001
  surface tension liquid-gas: 46 ± 2.1 mN/m
m1 = 0.001514
  surface tension liquid-gas: 45.6 ± 2.1 mN/m
m1 = 0.002042
  surface tension liquid-gas: 45 ± 2.1 mN/m
m1 = 0.002291
  surface tension liquid-gas: 44.5 ± 2.1 mN/m
m1 = 0.002512
  surface tension liquid-gas: 44 ± 2.1 mN/m
m1 = 0.002754
  surface tension liquid-gas: 43.5 ± 2.1 mN/m
m1 = 0.00302
  surface tension liquid-gas: 42.5 ± 2.1 mN/m
m1 = 0.003311
  surface tension liquid-gas: 42.5 ± 2.1 mN/m
m1 = 0.003548
  surface tension liquid-gas: 42.5 ± 2.1 mN/m
m1 = 0.004074
  surface tension liquid-gas: 42.5 ± 2.1 mN/m
m1 = 0.005012
  surface tension liquid-gas: 42.5 ± 2.1 mN/m
m1 = 0.006026
  surface tension liquid-gas: 42.5 ± 2.1 mN/m

## CCCCCCCCCCc1ccc(C(=O)NCC(=O)[O-])cn1.[Na+] [sodium (6-decylnicotinoyl)glycinate] + O
m1 = 1.995e-05
  surface tension liquid-gas: 64.7 ± 2.1 mN/m
m1 = 2.818e-05
  surface tension liquid-gas: 61.8 ± 2.1 mN/m
m1 = 4.786e-05
  surface tension liquid-gas: 59.4 ± 2.1 mN/m
m1 = 5.888e-05
  surface tension liquid-gas: 58.1 ± 2.1 mN/m
m1 = 8.128e-05
  surface tension liquid-gas: 56.6 ± 2.1 mN/m
m1 = 0.0001148
  surface tension liquid-gas: 55.2 ± 2.1 mN/m
m1 = 0.0001514
  surface tension liquid-gas: 53.2 ± 2.1 mN/m
m1 = 0.0002512
  surface tension liquid-gas: 52.5 ± 2.1 mN/m
m1 = 0.000302
  surface tension liquid-gas: 50 ± 2.1 mN/m
m1 = 0.0005012
  surface tension liquid-gas: 47 ± 2.1 mN/m
m1 = 0.0008128
  surface tension liquid-gas: 46 ± 2.1 mN/m
m1 = 0.001
  surface tension liquid-gas: 45 ± 2.1 mN/m
m1 = 0.001514
  surface tension liquid-gas: 44 ± 2.1 mN/m
m1 = 0.002042
  surface tension liquid-gas: 43 ± 2.1 mN/m
m1 = 0.002291
  surface tension liquid-gas: 42 ± 2.1 mN/m
m1 = 0.002512
  surface tension liquid-gas: 40.5 ± 2.1 mN/m
m1 = 0.00302
  surface tension liquid-gas: 40.5 ± 2.1 mN/m
m1 = 0.003548
  surface tension liquid-gas: 40.5 ± 2.1 mN/m
m1 = 0.004074
  surface tension liquid-gas: 40.5 ± 2.1 mN/m
m1 = 0.005012
  surface tension liquid-gas: 40.5 ± 2.1 mN/m
m1 = 0.006026
  surface tension liquid-gas: 40.5 ± 2.1 mN/m

## CCCCCCCCc1ccc(C(=O)[O-])cn1.[Na+] [sodium 6-octylnicotinate] + O
m1 = 5e-05
  surface tension liquid-gas: 69 ± 2.2 mN/m
m1 = 7.145e-05
  surface tension liquid-gas: 68.3 ± 2.1 mN/m
m1 = 0.0001
  surface tension liquid-gas: 67 ± 2.1 mN/m
m1 = 0.0001545
  surface tension liquid-gas: 66 ± 2.1 mN/m
m1 = 0.0002512
  surface tension liquid-gas: 64.9 ± 2.1 mN/m
m1 = 0.0003972
  surface tension liquid-gas: 63.6 ± 2.1 mN/m
m1 = 0.0006397
  surface tension liquid-gas: 61.8 ± 2.1 mN/m
m1 = 0.001
  surface tension liquid-gas: 60 ± 2.1 mN/m
m1 = 0.0015
  surface tension liquid-gas: 58.4 ± 2.1 mN/m
m1 = 0.002
  surface tension liquid-gas: 57.4 ± 2.1 mN/m
m1 = 0.0025
  surface tension liquid-gas: 57.4 ± 2.1 mN/m
m1 = 0.002999
  surface tension liquid-gas: 57.4 ± 2.1 mN/m
m1 = 0.003999
  surface tension liquid-gas: 57.4 ± 2.1 mN/m
m1 = 0.005
  surface tension liquid-gas: 56 ± 2.1 mN/m
m1 = 0.006427
  surface tension liquid-gas: 54.22 ± 2.1 mN/m
m1 = 0.009016
  surface tension liquid-gas: 52.4 ± 2.1 mN/m
m1 = 0.01
  surface tension liquid-gas: 49.5 ± 2.1 mN/m
m1 = 0.013
  surface tension liquid-gas: 48 ± 2.1 mN/m
m1 = 0.015
  surface tension liquid-gas: 47.5 ± 2.1 mN/m
m1 = 0.01702
  surface tension liquid-gas: 45 ± 2.1 mN/m
m1 = 0.02
  surface tension liquid-gas: 44 ± 2.1 mN/m
m1 = 0.025
  surface tension liquid-gas: 44 ± 2.1 mN/m
m1 = 0.02999
  surface tension liquid-gas: 44 ± 2.1 mN/m
m1 = 0.03499
  surface tension liquid-gas: 44 ± 2.1 mN/m
